What all share (assay): relative viability (nuclei count vs DMSO), 5 days (fraction); higher = more cells survive
Compound in test [1]: CC1=CC=C(C=C1)C(=O)CN2C3=C(CCCC3)SC2=N [Pifithrin_alpha] + CC(C)C[C@H](NC(=O)[C@H](Cc1ccccc1)NC(=O)c1cnccn1)B(O)O [Bortezomib] (partner 0.002 µM)
In short, it runs like this:
(§1)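 Lung cancer cell lines were seeded in 1536-well plates and dosed by pin tool the next day, with either a single drug or a fixed anchor-drug dose combined with five library-drug doses (not always all listed) spaced in √10 steps. Five days later, one step fixed the cells and stained their nuclei (final 0.05% Triton X-100, 1% formaldehyde, 1 ug/ml Hoechst), and nuclei were counted on 4× images. Relative viability is the nuclei count in treated wells divided by the count in vehicle wells, and each value is the median of duplicate plates.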

Compound in test [2]: CC1=CC=C(C=C1)C(=O)CN2C3=C(CCCC3)SC2=N [Pifithrin_alpha] + COc1cc2c(Oc3ccc(NC(=O)C4(C(=O)Nc5ccc(F)cc5)CC4)cc3F)ccnc2cc1OCCCN1CCOCC1 [Foretinib] (partner 0.25 µM)
In short, it runs like this:
as §1

Compound in the test “Bemcentinib + Vorinostat”: Nc1nc(Nc2ccc3c(c2)CC[C@@H](N2CCCC2)CC3)nn1-c1cc2c(nn1)-c1ccccc1CCC2 [Bemcentinib] + O=C(CCCCCCC(=O)Nc1ccccc1)NO [Vorinostat] (partner 1 µM)
In short, it runs like this: as §1

Compound in the test “Axitinib + Tozasertib”: CNC(=O)c1ccccc1Sc1ccc2c(/C=C/c3ccccn3)n[nH]c2c1 [Axitinib] + Cc1cc(Nc2cc(N3CCN(C)CC3)nc(Sc3ccc(NC(=O)C4CC4)cc3)n2)n[nH]1 [Tozasertib] (partner 0.1 µM)
The essentials:
as §1

The source of these data is the supplement of paper PMC10307832.

On to NCI-H3122, for which the relative viability in test [1] (first compound 1 µM) was 1.03; in test [1] (first compound 3.162 µM) it was 0.99; in test [1] (first compound 10 µM) it was 1.05; in test [1] (first compound 31.62 µM), 0.904; in test [1] (first compound 100 µM), 1; in test [2] (first compound 1 µM), 0.932. Besides, the relative viability in test [2] (first compound 3.162 µM) was 0.927; in test [2] (first compound 10 µM), 0.854; in test [2] (first compound 100 µM), 0.891; in the test with Bemcentinib + Vorinostat (first compound 0.04 µM), 0.548; with Bemcentinib + Vorinostat (first compound 0.1265 µM), 1.07; with Bemcentinib + Vorinostat (first compound 0.4 µM), 1.11. For the same cell line, the relative viability amounted to 1.06 with Bemcentinib + Vorinostat (first compound 1.265 µM); 0.983 with Bemcentinib + Vorinostat (first compound 4 µM); 0.38 with Axitinib + Tozasertib (first compound 0.005 µM); 0.426 in the test with Axitinib + Tozasertib (first compound 0.01581 µM); 0.346 in the test with Axitinib + Tozasertib (first compound 0.05 µM); 0.415 with Axitinib + Tozasertib (first compound 0.1581 µM). The relative viability with Axitinib + Tozasertib (first compound 0.5 µM) is 0.566.
For PC-3 [JPC-3], the relative viability in test [1] (first compound 1 µM) was found to be 0.819; in test [1] (first compound 3.162 µM), 0.877; in test [1] (first compound 10 µM), 0.77; in test [1] (first compound 31.62 µM), 0.583; in test [1] (first compound 100 µM), 0.613; in test [2] (first compound 1 µM), 1.05. Also, the relative viability in test [2] (first compound 3.162 µM) was 0.991; in test [2] (first compound 10 µM), 0.927; in test [2] (first compound 31.62 µM), 0.833; in test [2] (first compound 100 µM), 0.931; with Bemcentinib + Vorinostat (first compound 0.04 µM), 0.898; with Bemcentinib + Vorinostat (first compound 0.1265 µM) it was 0.735. Besides, the relative viability with Bemcentinib + Vorinostat (first compound 0.4 µM) was determined as 0.784; with Bemcentinib + Vorinostat (first compound 1.265 µM) it was 0.725; in the test with Bemcentinib + Vorinostat (first compound 4 µM) it was 0.752; with Axitinib + Tozasertib (first compound 0.005 µM), 0.96; with Axitinib + Tozasertib (first compound 0.01581 µM), 0.899; in the test with Axitinib + Tozasertib (first compound 0.05 µM), 1. Besides, the relative viability with Axitinib + Tozasertib (first compound 0.1581 µM) is 0.855; with Axitinib + Tozasertib (first compound 0.5 µM), 1.03.
PC-14: the relative viability in test [1] (first compound 1 µM) came to 0.821; in test [1] (first compound 3.162 µM), 0.829; in test [1] (first compound 10 µM), 0.964; in test [1] (first compound 31.62 µM), 0.888; in test [1] (first compound 100 µM), 0.882; in test [2] (first compound 1 µM), 1.09. Besides, the relative viability came out at 0.998 in test [2] (first compound 3.162 µM); 1.03 in test [2] (first compound 10 µM); 0.791 in test [2] (first compound 31.62 µM); 0.94 in test [2] (first compound 100 µM); 0.681 in the test with Bemcentinib + Vorinostat (first compound 0.04 µM); 0.696 with Bemcentinib + Vorinostat (first compound 0.1265 µM). Further, the relative viability in the test with Bemcentinib + Vorinostat (first compound 0.4 µM) was 0.979; in the test with Bemcentinib + Vorinostat (first compound 1.265 µM), 0.83; with Bemcentinib + Vorinostat (first compound 4 µM), 0.664; with Axitinib + Tozasertib (first compound 0.005 µM), 0.6; with Axitinib + Tozasertib (first compound 0.05 µM), 0.553; in the test with Axitinib + Tozasertib (first compound 0.1581 µM), 0.558. Further, in the test with Axitinib + Tozasertib (first compound 0.5 µM), the relative viability is 0.758.
Turning to RERF-LC-KJ, the relative viability in test [1] (first compound 1 µM) turned out to be 0.798; in test [1] (first compound 3.162 µM) it was 0.855; in test [1] (first compound 10 µM), 1.07; in test [1] (first compound 31.62 µM) it was 1; in test [1] (first compound 100 µM) it was 0.721; in test [2] (first compound 1 µM) it was 0.886. Also, the relative viability turned out to be 0.829 in test [2] (first compound 3.162 µM); 0.792 in test [2] (first compound 10 µM); 0.813 in test [2] (first compound 31.62 µM); 0.786 in test [2] (first compound 100 µM); 0.699 in the test with Bemcentinib + Vorinostat (first compound 0.04 µM); 0.732 with Bemcentinib + Vorinostat (first compound 0.1265 µM). Besides, the relative viability with Bemcentinib + Vorinostat (first compound 0.4 µM) turned out to be 0.713; with Bemcentinib + Vorinostat (first compound 1.265 µM) it was 0.635; with Bemcentinib + Vorinostat (first compound 4 µM) it was 0.65; in the test with Axitinib + Tozasertib (first compound 0.005 µM), 0.458; with Axitinib + Tozasertib (first compound 0.01581 µM), 0.485; with Axitinib + Tozasertib (first compound 0.05 µM), 0.535. Moreover, the relative viability with Axitinib + Tozasertib (first compound 0.1581 µM) came out at 0.573; in the test with Axitinib + Tozasertib (first compound 0.5 µM), 0.52.
For SK-LU-1, the relative viability in test [1] (first compound 1 µM) came to 0.891; in test [1] (first compound 3.162 µM), 1.4; in test [1] (first compound 10 µM), 1.41; in test [1] (first compound 31.62 µM) it was 0.574; in test [1] (first compound 100 µM), 1.39; in test [2] (first compound 1 µM), 0.884. The relative viability worked out at 0.95 in test [2] (first compound 3.162 µM); 0.84 in test [2] (first compound 10 µM); 0.858 in test [2] (first compound 100 µM); 0.801 with Bemcentinib + Vorinostat (first compound 0.04 µM); 0.762 in the test with Bemcentinib + Vorinostat (first compound 0.1265 µM); 0.883 with Bemcentinib + Vorinostat (first compound 0.4 µM). Further, the relative viability worked out at 0.887 in the test with Bemcentinib + Vorinostat (first compound 1.265 µM); 0.746 with Bemcentinib + Vorinostat (first compound 4 µM); 0.41 in the test with Axitinib + Tozasertib (first compound 0.005 µM); 0.345 in the test with Axitinib + Tozasertib (first compound 0.01581 µM); 0.333 in the test with Axitinib + Tozasertib (first compound 0.05 µM); 0.375 with Axitinib + Tozasertib (first compound 0.1581 µM). The relative viability with Axitinib + Tozasertib (first compound 0.5 µM) was 0.47.
Turning to SW 1573, the relative viability in test [1] (first compound 1 µM) amounted to 1.01; in test [1] (first compound 3.162 µM), 0.98; in test [1] (first compound 10 µM), 1.13; in test [1] (first compound 31.62 µM), 0.899; in test [1] (first compound 100 µM), 1.14; in test [2] (first compound 1 µM) it was 1.01. Besides, the relative viability was 0.891 in test [2] (first compound 3.162 µM); 0.835 in test [2] (first compound 10 µM); 0.753 in test [2] (first compound 31.62 µM); 0.709 in test [2] (first compound 100 µM); 0.662 with Bemcentinib + Vorinostat (first compound 0.04 µM); 0.785 with Bemcentinib + Vorinostat (first compound 0.1265 µM). For the same cell line, the relative viability with Bemcentinib + Vorinostat (first compound 0.4 µM) was determined as 0.873; with Bemcentinib + Vorinostat (first compound 1.265 µM), 0.879; in the test with Bemcentinib + Vorinostat (first compound 4 µM), 0.765; in the test with Axitinib + Tozasertib (first compound 0.005 µM), 0.169; with Axitinib + Tozasertib (first compound 0.01581 µM), 0.214; in the test with Axitinib + Tozasertib (first compound 0.05 µM), 0.166. Besides, the relative viability came out at 0.178 in the test with Axitinib + Tozasertib (first compound 0.1581 µM) and 0.249 with Axitinib + Tozasertib (first compound 0.5 µM).
With UMC-11, the relative viability was 0.818 in test [1] (first compound 1 µM); 0.803 in test [1] (first compound 3.162 µM); 0.759 in test [1] (first compound 10 µM); 0.574 in test [1] (first compound 31.62 µM); 1.05 in test [1] (first compound 100 µM); 0.965 in test [2] (first compound 1 µM). Moreover, the relative viability is 1.13 in test [2] (first compound 3.162 µM); 1.19 in test [2] (first compound 10 µM); 1.04 in test [2] (first compound 31.62 µM); 1.43 in test [2] (first compound 100 µM); 0.387 with Bemcentinib + Vorinostat (first compound 0.04 µM); 0.359 with Bemcentinib + Vorinostat (first compound 0.1265 µM). Also, the relative viability with Bemcentinib + Vorinostat (first compound 0.4 µM) stood at 0.344; with Bemcentinib + Vorinostat (first compound 1.265 µM), 0.321; with Bemcentinib + Vorinostat (first compound 4 µM), 0.376; in the test with Axitinib + Tozasertib (first compound 0.005 µM), 0.211; with Axitinib + Tozasertib (first compound 0.01581 µM) it was 0.195; in the test with Axitinib + Tozasertib (first compound 0.05 µM) it was 0.2. Further, the relative viability with Axitinib + Tozasertib (first compound 0.1581 µM) was determined as 0.202; in the test with Axitinib + Tozasertib (first compound 0.5 µM), 0.206.
